Assay results reported in ChEMBL document CHEMBL1201862, “PubChem BioAssay data set” (2004).
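In this assay, cells in 96-well plates receive the compound at five concentrations for 48 hours. Endpoints are linearly interpolated between the surrounding concentrations. Here, GI50 denotes the concentration required for 50% inhibition of growth.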 The source made the active and inactive calls. Rule as the data show it: active = GI50 up to about 1.1 µM and inactive = higher.

What was measured:
Assay in all cases: DTP human tumour cell line panel, 48 h
NCI-H522 = system: NCI-H522
KM12 = system: KM12
OVCAR-5 = system: OVCAR-5
NCI-H23 = system: NCI-H23
M19-MEL = system: M19-MEL
HCC 2998 = system: HCC 2998
SK-MEL-5 = system: SK-MEL-5
SK-OV-3 = system: SK-OV-3
SF-539 = system: SF-539
COLO 205 = system: COLO 205
SNB-75 = system: SNB-75
SN12C = system: SN12C
HCT-116 = system: HCT-116
HCT-15 = system: HCT-15
A498 = system: A498
Malme-3M = system: Malme-3M
A549 = system: A549

SMILES | GI50 (NCI-H522) | GI50 (KM12) | GI50 (OVCAR-5) | GI50 (NCI-H23) | GI50 (M19-MEL) | GI50 (HCC 2998) | GI50 (SK-MEL-5) | GI50 (SK-OV-3) | GI50 (SF-539) | GI50 (COLO 205) | GI50 (SNB-75) | GI50 (SN12C) | GI50 (HCT-116) | GI50 (HCT-15) [µM] | GI50 (A498) | GI50 (Malme-3M) | GI50 (A549)
CC(=O)C1C(=O)C(=O)N(CCN2C(=O)C(=O)C(C(C)=O)C2=O)C1=O (stereo unspecified) | > 100 µM (inactive) | > 100 µM (inactive) | > 100 µM (inactive) | > 100 µM (inactive) | > 100 µM (inactive) | > 100 µM (inactive) | > 100 µM (inactive) | > 100 µM (inactive) | > 100 µM (inactive) | > 100 µM (inactive) | > 100 µM (inactive) | > 100 µM (inactive) | > 100 µM (inactive) | > 100 | > 100 µM (inactive) | > 100 µM (inactive) | 
COc1c(C2=NC(C(C)C)CO2)ccc2ccccc12 (stereo unspecified) | 28.2 µM (inactive) | 28.1 µM (inactive) | 82.8 µM (inactive) | 34.6 µM (inactive) | 55.5 µM (inactive) | 23.7 µM (inactive) | 14.2 µM (inactive) | > 100 µM (inactive) | 34.8 µM (inactive) | 41.2 µM (inactive) | 27.6 µM (inactive) | 64.3 µM (inactive) |  | 5.11 | 27.3 µM (inactive) | 35.8 µM (inactive) | 32.7 µM (inactive)
COc1cccc(N2C(=O)[C@H]3[C@H]4CC(C(C)(C)C)CC[C@H]4c4c([nH]c5ccccc45)[C@H]3C2=O)c1 (stereo partly specified) | 19.4 µM (inactive) | 39 µM (inactive) |  | 19.2 µM (inactive) | 19 µM (inactive) | 28.4 µM (inactive) | 18 µM (inactive) | 20.8 µM (inactive) | 23 µM (inactive) | 15.5 µM (inactive) | 15.3 µM (inactive) | 13.4 µM (inactive) |  | 34.6 |  | 20.6 µM (inactive) | 15.3 µM (inactive)
CC(=O)c1cc2c3c(c1)c1cc4c(cc1c(=O)n3CC2)OCO4 | 7.21 µM (inactive) | 8.63 µM (inactive) | 78.7 µM (inactive) | 75.5 µM (inactive) | 34 µM (inactive) | > 100 µM (inactive) | 31 µM (inactive) | > 100 µM (inactive) | 32.6 µM (inactive) | 29.6 µM (inactive) | 34.4 µM (inactive) | 16.8 µM (inactive) | 4.71 µM (inactive) | 19.8 |  | 23.3 µM (inactive) | 40.1 µM (inactive)
CC(=O)OC12CCCCC1C1(CCCC1)NC2=O (stereo unspecified) |  | > 100 µM (inactive) | > 100 µM (inactive) | > 100 µM (inactive) | > 100 µM (inactive) | > 100 µM (inactive) |  | > 100 µM (inactive) | > 100 µM (inactive) |  | > 100 µM (inactive) | > 100 µM (inactive) | > 100 µM (inactive) | > 100 | > 100 µM (inactive) | > 100 µM (inactive) | > 100 µM (inactive)
Cc1nc2ccccc2c(=O)n1/N=C(\N=N\c1cc(Cl)ccc1Cl)c1cccc(-c2ccco2)c1 |  | 82.6 µM (inactive) | > 100 µM (inactive) | > 100 µM (inactive) | > 100 µM (inactive) | > 100 µM (inactive) | 96.4 µM (inactive) | > 100 µM (inactive) | > 100 µM (inactive) | > 100 µM (inactive) | > 100 µM (inactive) | 88.3 µM (inactive) | 53.3 µM (inactive) | 74.6 | > 100 µM (inactive) | > 100 µM (inactive) | > 100 µM (inactive)
Cc1ccc(NC(=O)C(=O)C2NC(=S)NC2=O)c([N+](=O)[O-])c1 (stereo unspecified) | > 100 µM (inactive) | > 100 µM (inactive) | > 100 µM (inactive) | > 100 µM (inactive) | > 100 µM (inactive) | > 100 µM (inactive) | > 100 µM (inactive) | > 100 µM (inactive) | > 100 µM (inactive) | > 100 µM (inactive) | > 100 µM (inactive) | > 100 µM (inactive) | > 100 µM (inactive) | > 100 | > 100 µM (inactive) | > 100 µM (inactive) | > 100 µM (inactive)
CCc1c(OC(C)=O)c2c(NC3OC(COC(C)=O)C(OC(C)=O)C(OC(C)=O)C3OC(C)=O)nc(OC)nc2oc1=O (stereo unspecified) |  | > 100 µM (inactive) | > 100 µM (inactive) | > 100 µM (inactive) | > 100 µM (inactive) | > 100 µM (inactive) | > 100 µM (inactive) | > 100 µM (inactive) | > 100 µM (inactive) | > 100 µM (inactive) | > 100 µM (inactive) | > 100 µM (inactive) | > 100 µM (inactive) | > 100 | > 100 µM (inactive) | > 100 µM (inactive) | > 100 µM (inactive)
Cc1ccc(S(=O)(=O)N/N=C\c2c3ccccc3[n+](C)c3ccccc23)cc1 | 25.8 µM (inactive) | 34.6 µM (inactive) | > 100 µM (inactive) | 21.1 µM (inactive) | 32.1 µM (inactive) | 92.7 µM (inactive) | 29.4 µM (inactive) | > 100 µM (inactive) | 22.4 µM (inactive) |  | 20 µM (inactive) | 48.6 µM (inactive) | 30.5 µM (inactive) | 25.8 | 20.4 µM (inactive) | 32.4 µM (inactive) | 20.8 µM (inactive)
O=C(O/N=C1/CCCC/C1=C\c1ccccc1)c1ccc(Cl)cc1 | 23.3 µM (inactive) | > 100 µM (inactive) | 44.8 µM (inactive) | > 100 µM (inactive) | > 100 µM (inactive) | 0.0177 µM (active) | 89.7 µM (inactive) | > 100 µM (inactive) | > 100 µM (inactive) | > 100 µM (inactive) | 88.7 µM (inactive) | > 100 µM (inactive) | > 100 µM (inactive) | > 100 |  | > 100 µM (inactive) | > 100 µM (inactive)
CCN(CC)CCC(=O)Nc1ccc2c(c1)C(=O)c1ccc(NC(=O)CCN(CC)CC)cc1C2=O | 11.2 µM (inactive) | 1.81 µM (inactive) | 11.2 µM (inactive) | 8.2 µM (inactive) | > 100 µM (inactive) | > 100 µM (inactive) | 7.08 µM (inactive) | 9.73 µM (inactive) | 3.51 µM (inactive) | 3.28 µM (inactive) | 14.2 µM (inactive) | 2.84 µM (inactive) | 2.19 µM (inactive) | 2.97 | 5.79 µM (inactive) |  | 5.18 µM (inactive)
CC1(C)OCN(c2ccc(N3CCOCC3)cc2)Cn2c1nc1ccccc12 | > 100 µM (inactive) | > 100 µM (inactive) |  | > 100 µM (inactive) | > 100 µM (inactive) | > 100 µM (inactive) |  | > 100 µM (inactive) | 88.1 µM (inactive) | > 100 µM (inactive) | > 100 µM (inactive) | > 100 µM (inactive) | 65.9 µM (inactive) | > 100 | > 100 µM (inactive) | > 100 µM (inactive) | > 100 µM (inactive)
c1cnc2nc3n(c2c1)CSC3 | > 100 µM (inactive) | > 100 µM (inactive) | > 100 µM (inactive) | > 100 µM (inactive) | > 100 µM (inactive) | > 100 µM (inactive) | > 100 µM (inactive) | > 100 µM (inactive) | > 100 µM (inactive) | > 100 µM (inactive) | > 100 µM (inactive) | > 100 µM (inactive) |  | > 100 | > 100 µM (inactive) | > 100 µM (inactive) | > 100 µM (inactive)
O=[N+]([O-])c1nccn1COCCI | > 100 µM (inactive) | > 100 µM (inactive) | > 100 µM (inactive) | > 100 µM (inactive) | > 100 µM (inactive) |  | > 100 µM (inactive) | > 100 µM (inactive) | > 100 µM (inactive) | > 100 µM (inactive) | > 100 µM (inactive) | > 100 µM (inactive) | > 100 µM (inactive) | > 100 |  | > 100 µM (inactive) | > 100 µM (inactive)
CCOC(=O)Nc1ccc(S(=O)(=O)I)cc1.CCOC(=O)Nc1ccc(S(=O)(=O)I)cc1.CN(C=O)C1=C(N(C)C=O)C(N(C)C=O)=C(N(C)C=O)C(=O)C1=O |  | > 100 µM (inactive) | > 100 µM (inactive) | > 100 µM (inactive) | > 100 µM (inactive) | > 100 µM (inactive) |  | > 100 µM (inactive) | > 100 µM (inactive) | > 100 µM (inactive) |  | > 100 µM (inactive) | > 100 µM (inactive) | > 100 | > 100 µM (inactive) | > 100 µM (inactive) | > 100 µM (inactive)
CC1CCC2(OCCO2)[C@]2(C)CC(O)C(=O)C=C12 (stereo partly specified) | > 100 µM (inactive) | > 100 µM (inactive) | > 100 µM (inactive) | > 100 µM (inactive) | > 100 µM (inactive) | > 100 µM (inactive) | > 100 µM (inactive) | > 100 µM (inactive) | > 100 µM (inactive) | > 100 µM (inactive) |  | > 100 µM (inactive) |  | > 100 |  | > 100 µM (inactive) | > 100 µM (inactive)
CC1(Cl)C(=O)NC(=O)N([C@H]2C[C@H](O)[C@@H](CO)O2)C1N=[N+]=[N-] (stereo partly specified) | > 100 µM (inactive) | > 100 µM (inactive) | > 100 µM (inactive) | > 100 µM (inactive) | > 100 µM (inactive) | > 100 µM (inactive) | > 100 µM (inactive) | > 100 µM (inactive) | > 100 µM (inactive) | > 100 µM (inactive) | > 100 µM (inactive) | > 100 µM (inactive) | > 100 µM (inactive) | > 100 | > 100 µM (inactive) | > 100 µM (inactive) | > 100 µM (inactive)
Cc1ccccc1-n1c2nc(=O)n(C)c(=O)c-2nc2ccccc21 | 14.9 µM (inactive) | 12.2 µM (inactive) | 20.5 µM (inactive) | 10.1 µM (inactive) | 1.85 µM (inactive) | 10.8 µM (inactive) | 10.6 µM (inactive) | 36.9 µM (inactive) | 15.2 µM (inactive) | 3.56 µM (inactive) | 20.1 µM (inactive) | 13.3 µM (inactive) | 14.6 µM (inactive) | 11.1 | 31.8 µM (inactive) | 5.58 µM (inactive) | 13.2 µM (inactive)
